The text below walks through data of publication PMC10860144, “Exploring the Dispersion and Electrostatic Components in Arene–Arene Interactions between Ligands and G4 DNA to Develop G4-Ligands” (Journal of Medicinal Chemistry, 2024).

Assay [1] deals with Immortalized Human Total Liver Cell Population (IHTLCP). The experiment in a line: IHTLCP cell viability (PrestoBlue). Type of assay: cell-based. Conditions: 72 h. The method, then:
(§1) Cell viability was measured using the PrestoBlue cell viability reagent (Invitrogen) according to the manufacturer’s recommendations.
For IHTLCP, 1850 cells/well were seeded in complete Prigrow III medium (abm) in 384-wells, black walls plate (PerkinElmer) the day before the treatment. Compounds were titrated 1/2 in DMSO, dissolved in medium, and transferred to the cells to generate the indicated final concentrations (final volume 60 μL/well). 72 h after treatment, 6 μL of PrestoBlue was added per well. Cells were incubated in PrestoBlue for 1 h at 37 °C after which fluorescence (excitation 535 nm, emission 590 nm, 20 nm bandwidth) was measured using a Synergy H4Microplate Reader. Percent viability of IHTLCP cells was calculated as FLUcmp – FLUbg/FLUDMSO – FLUbg (n = 3). […]
a Intrinsic clearance in rat hepatocytes ((μL/min)/10^6 cells).b Intrinsic clearance in human microsomes (μL/min/mg).
Table S3. […]
as §1
For HeLa cells, 5000 cells/well were seeded in complete medium on 96-wells, black walls plate the day before the treatment. […] Fluorescence (excitation 560 nm, emission 590 nm, 10 nm bandwidth) was recorded using a FLUOstar Omega Microplate Reader (BMG). […]
THP1 cell viability was measured according to a previously published procedure.9

Assay [2] concerns c-MYC Pu22 G4 DNA in the presence of competitor dsDNA (ds26). The experiment in a line: FRET melting competition assay with dsDNA (ds26). Type of assay: binding, human. Conditions: 5 at 2 μM, 27 at 5 μM; 0–100 equiv ds26. The method, then:
We next challenged the compounds’ G4 selectivity with a FRET melting competition assay using 5 (2 μM) and 27 (5 μM) with c-MYC Pu22 G4 DNA and increasing amounts of dsDNA (Figure 6D and Table S1). […] In addition, we investigated if we could detect any binding of the compounds to dsDNA using MST with a fluorescently labeled dsDNA (Table S1).
The FRET occurs between two dyes (5′-FAM as donor and 3′-TAMRA as acceptor) linked at both extremities of a DNA oligonucleotide. When the oligonucleotides are folded into G4 structures, the donor and acceptor are in proximity, which results in an energy transfer from the donor to the acceptor. This process can be detected by a reduction in the fluorescence emission of the donor. Fluorescence emission of the donor is recovered when the temperature increment triggers the thermal denaturation of the G4 structure. The experiments were performed in a Bio-Rad CFX96 real-time PCR device at temperatures from 10 to 95 °C at 1.5 °C/m heating rate using a 492 nm excitation wavelength and a 516 nm detection wavelength in 96-well plates. Each condition was tested in duplicate, and analysis of the data was carried out by using Excel and Origin 8 software. […] The stabilization (ΔTm) is calculated from comparison of Tm of the fluorescently labeled oligonucleotide in the presence or absence of the ligand.

As to `Cc1cc(C)c2nc(Nc3nc(C)cc(NCCCN(C)C)n3)nc(C)c2c1` [Compound 5, N4-(3-(Dimethylamino)propyl)-6-methyl-N2-(4,6,8-trimethylquinazolin-2-yl)pyrimidine-2,4-diamine], in assay [1], the IC50 (usually the concentration that inhibits the measured activity by half) was found to be 0.64 µM. The “change in compound-induced thermal stability of c-MYC Pu22 G4 DNA with increasing dsDNA” value in assay [2] is on record as “No significant change”.

As for `Cc1cc(C)c2nc(Nc3nc(C)cc(C)n3)nc(C)c2c1` [Compound 27, N-(4,6-Dimethylpyrimidin-2-yl)-4,6,8-trimethylquinazolin-2-amine], the IC50 in assay [1] is 35 µM. Also, the “change in compound-induced thermal stability of c-MYC Pu22 G4 DNA with increasing dsDNA” value in assay [2] is given as “No significant change”.
